In patent US20220168384A1, “Anti-Bacterial Combination Therapy” (McMaster University, priority 2019, published 2022):
Like-named read-outs stand apart in the source and are kept apart here.

Key:
P. aeruginosa PA14 [1] = assay: Dose response and checkerboard assays against PA14; assay type: cell-based, Pseudomonas aeruginosa; conditions: for synergy with DSX: checkerboard of DSX with antibiotic
Experimental: Checkerboard assays were set-up using Nunc 96-well plates in an 8-well by 8-well format. Two columns were allocated for vehicle controls and two columns for sterility controls. Vehicle controls contained 2 μL DMSO plus 2 μL DFP solvent for checkerboards with TS and DFP or 4 μL DMSO for TS and DSX, in 146 μL of 10:90 medium or 10% serum inoculated with PA14 or PAO1-KP as described in Growth Curves. Sterile controls contained the same components in 10:90 medium or 10% serum, without cells. Serial dilutions of TS—with 17 μg/mL being the highest final concentration—were added along the y axis of the checkerboard (increasing concentration from bottom to top) whereas serial dilutions of DFP or DSX—with 512 μg/mL being the highest final concentration—were added along the x axis (increasing concentration from left to right). The final volume of each well was 150 μL and each checkerboard was repeated at least three times. Plates were incubated and the final OD600 determined as detailed above.
Culture conditions, growth assays, dose response and checkerboard assays using P. aeruginosa PA14 were performed as described in Example 1. Briefly, overnight cultures were grown in LB for 16 h, 37° C., 200 rpm then subcultured (1:500 dilution) into 10:90 for 6 h. Subcultures were standardized to OD600 of 0.10 and diluted 1:500 in fresh 10:90 before use. For the dose response assay, serial dilutions of compounds were added at 75 times the final concentration and diluted with 10:90 with cells to reach the desired final concentration. This was done in triplicate for technical replicates. Vehicle and sterile controls were included. The checkerboard assay was done similarly to the dose response assay but in an 8×8 format in a 96-well Nunc plate, with concentration of one drug increasing along the y-axis and the other along the x-axis. Sterility and vehicle controls were included with two columns allocated for each control. At least three biological replicates were repeated for the dose response and checkerboard assays.

[2] = Qualitative assay for antibiotic-Fe3+ coloured complexes; assay type: physicochemical; conditions: stock antibiotic + FeCl3 final 10 μM; room temperature 1 h
Experimental: […]. Binding of iron by a compound causes spectral shifts that can detected visually. Five μL of stock concentration antibiotic was added to 5 μL of FeCl3 to a final FeCl3 concentration of 10 μM and incubated at room temperature for one hour. Negative controls without iron are indicated by a negative sign and droplets with FeCl3 are indicated with a positive sign; vehicle controls with Milli-Q H2O and DMSO were included.
Compounds were arrayed in Nunc 96 microwell plates. Vehicle controls contained Milli-Q H2O with 1:75 dilution of each compound at a final concentration of […]. The experimental set-up contained the same components as the vehicle control, with the addition of […] FeCl3. The final volume in each well was 150 μL. The plate was incubated at room temperature for one hour and absorption spectra from 300 nm to 700 nm was read in 2 nm increments (Multiskan Go—Thermo Fisher Scientific). […]

[3] = Chrome azurol S (CAS) plate assay; assay type: physicochemical; conditions: 10 μL of 2 mg/mL; room temperature 1 h
[4] = UV-Vis absorption spectra assay for iron chelation; assay type: physicochemical; conditions: 300 μM compound and FeCl3; 300-700 nm; 1 h
Experimental: Equimolar concentrations of compound and FeCl3 were added in deionized H2O to a final concentration of 300 μM and a spectrum of wavelengths from 300 nm to 700 nm read after 1 h incubation at room temperature. The black dashed line is the spectrum of the compound in the absence of iron. The black solid line is the spectrum after the addition of iron. […] Chloramphenicol and ampicillin were used as negative controls. Each assay was performed at least 3 times and averaged values are shown.
Compounds were arrayed in Nunc 96 microwell plates. Vehicle controls contained Milli-Q H2O with 1:75 dilution of each compound at a final concentration of […]. The experimental set-up contained the same components as the vehicle control, with the addition of […] FeCl3. The final volume in each well was 150 μL. The plate was incubated at room temperature for one hour and absorption spectra from 300 nm to 700 nm was read in 2 nm increments (Multiskan Go—Thermo Fisher Scientific).

P. aeruginosa PA14 [5] = assay: Checkerboards pinned to LB agar (bactericidal activity); assay type: cell-based, Pseudomonas aeruginosa; conditions: overnight 37° C.
Experimental: Checkerboards were pinned to LB agar plates using a sterile 96 pin tool. Plates were incubated overnight at 37° C. Independent experiments were conducted 3 times and a representative plate is shown.

[6] = system: P. aeruginosa clinical isolates; assay: Clinical isolates testing, P. aeruginosa; assay type: cell-based, Pseudomonas aeruginosa
Experimental: Clinical isolates of P. aeruginosa and A. baumannii were inoculated from −80° C. stocks into 200 μL LB broth and grown with shaking at 200 rpm, 16 h, 37° C. in Nunc 96-well plates. The overnight cultures were subcultured (1:25 dilution) into 10:90 and grown with shaking at 200 rpm, 2 h, 37° C. Vehicle controls consisted of 4 μL of DMSO, 144 μL 10:90 and 2 μL of subculture. Sterile controls consisted of 4 μL of DMSO and 146 μL 10:90. […]. The final volume of each well was 150 μL and each checkerboard was repeated at least three times. Plates were incubated with shaking at 200 rpm, 16 h, 37° C. and OD600 was measured (Multiskan Go—Thermo Fisher Scientific). The results were plotted as percent of control (wells containing only DMSO) using Prism (GraphPad).
Clinical isolates were grown and tested as described in Example 1. Briefly, clinical isolates were inoculated from glycerol stocks stored at −80° C. into Nunc 96-well plates and grown overnight at 37° C., for 16 h with shaking in LB (200 rpm). Overnights were subcultured (1:25) into fresh 10:90 medium and grown for 2 h under the same growth conditions. Subcultures were diluted 1:75 in fresh 10:90. Compounds were diluted 1:75 to obtain the final concentration. DOXY and CLI were added at a final concentration of 1 μg/mL, CO was used at 2 μg/mL, TRO was used at 4 μg/mL, TS was used at 8.3 μg/mL, and DSX was used at 32 μg/mL. Vehicle and sterility controls were included. Plates were incubated overnight with the same conditions. The OD600 was read (Multiscan Go—Thermo Fisher Scientific), analyzed using Excel, and the data plotted using Prism (GraphPad).
(§1) Culture conditions, checkerboard assays using P. aeruginosa PA14 and dose-response assays were performed as described in Example 1. In addition to TS, other thiopeptides tested were siomycin A (SM), thiocillin I (TC), micrococcin P1 (MC), nosiheptide (NH), berninamycin A (BER), and geninthiocin A (GEN). For dose response assays of the combinations conducted in 10:90, DSX concentration was constant at 64 μg/mL.

P. aeruginosa PA14 [7] = assay: Thiopeptide + DSX checkerboard and dose-response assays; assay type: cell-based, Pseudomonas aeruginosa; conditions: thiopeptide + DSX checkerboard, 10:90
Experimental: as §1

[8] = checkerboard, IC50 isobolograms, PA14, 10:90
[9] = Pseudomonas aeruginosa, PA14, concentration used in clinical isolate testing, read-out: ⅛^th the MIC of PA14

Compound: COc1cc(/C=C/C(=O)CC(=O)/C=C/c2ccc(O)c(OC)c2)ccc1O [Curcumin]
- synergy with TS (P. aeruginosa PA14 [1]; [8]): None

Compound: COc1cc(Cc2cnc(N)nc2N)cc(OC)c1OC [Trimethoprim]
- colour change upon addition of FeCl3 [2]: turned golden-yellow

Compound: O=c1cccccc1O [TRO, Tropolone]
- decolourization of CAS agar (relative affinity for iron) [3]: greatest decolourization
- absorption spectrum after addition of FeCl3 [4]: showed shifts in their absorption spectra
- interaction with DSX (P. aeruginosa PA14 [1]; 2D checkerboard, PA14): indifferent
- MIC (P. aeruginosa PA14 [1]; [9]): 4 µg/mL
- effect of 100 μM Fe^3+ on inhibitory activity (P. aeruginosa PA14 [1]; VAN + compound checkerboards, PA14): abrogated
- synergy with TS (P. aeruginosa PA14 [1]; [8]): synergized
- relative potency of synergy with TS (P. aeruginosa PA14 [1]; checkerboards, isobolograms and CI values, PA14): greater synergy
- mode of activity of compound alone (P. aeruginosa PA14 [5]): bacteriostatic
- susceptibility of C0379 compared to PA14 [6]: less susceptible

Compound: O=P([O-])([O-])O[C@H]1[C@H](OP(=O)([O-])O)[C@H](OP(=O)([O-])[O-])[C@H](OP(=O)([O-])O)[C@@H](OP(=O)([O-])[O-])[C@@H]1OP(=O)([O-])O.[Na+].[Na+].[Na+].[Na+].[Na+].[Na+].[Na+].[Na+].[Na+] [sodium phytate, Sodium phytate]
- synergy with TS (P. aeruginosa PA14 [1]): None

Compound: C/C=C(\NC(=O)c1csc(-c2csc(-c3ccc4c(n3)-c3csc(n3)[C@H]([C@@H](C)O)NC(=O)c3csc(n3)[C@H](C(C)(C)O)NC(=O)c3csc(n3)/C(=C/C)NC(=O)[C@H]([C@@H](C)O)NC(=O)c3csc-4n3)n2)n1)C(=O)NC[C@@H](C)O [TC, thiocillin I]
- synergy with DSX (P. aeruginosa PA14 [7]): synergize

Compound: C=C(NC(=O)C(=C)NC(=O)c1csc(C2=N[C@@H]3c4csc(n4)[C@H]4NC(=O)c5csc(n5)[C@H]([C@](C)(O)[C@@H](C)O)NC(=O)[C@H]5CSC(=N5)/C(=C/C)NC(=O)[C@H]([C@@H](C)O)NC(=O)c5csc(n5)[C@]3(CC2)NC(=O)[C@H](C)NC(=O)C(=C)NC(=O)C(=C)NC(=O)[C@H](C(C)C)N[C@@H]2C=Cc3c([C@H](C)O)cc(nc3[C@H]2O)C(=O)O[C@@H]4C)n1)C(N)=O [SM, siomycin A]
- synergy with DSX (P. aeruginosa PA14 [7]): synergize

Compound: NC[C@H]1O[C@H](O[C@H]2[C@H](O)[C@@H](O[C@H]3O[C@H](CO)[C@@H](O)[C@H](N)[C@H]3O)[C@H](N)C[C@@H]2N)[C@H](N)C[C@@H]1O [tobramycin]
- synergy with DSX (P. aeruginosa PA14 [1]; PA14): No synergy

Compound: O=[N+]([O-])[O-].O=[N+]([O-])[O-].O=[N+]([O-])[O-].[Ga+3] [GN, Gallium Nitrate]
- relative potency of synergy with TS (P. aeruginosa PA14 [1]): weakest
- synergy with TS (P. aeruginosa PA14 [1]): synergized

Compound: O=C(CCc1ccc(O)cc1)c1c(O)cc(O)cc1O [phloretin, Phloretin]
- synergy with TS (P. aeruginosa PA14 [1]; [8]): None

Compound: O=C(O)c1cn(C2CC2)c2cc(N3CCNCC3)c(F)cc2c1=O [CIP, ciprofloxacin]
- colour change upon addition of FeCl3 [2]: formed orange complexes
- synergy with DSX (P. aeruginosa PA14 [1]; PA14): No synergy

Compound: C=C(NC(=O)c1csc(-c2nc3c(cc2O)-c2nc(cs2)C(=O)NC(C(C)O)C(=O)N/C(=C\C)c2nc(cs2)C(=O)NC2CC(O)C(=O)OCc4cccc5[nH]c(c(C)c45)C(=O)SCC(NC(=O)c4csc2n4)c2nc-3cs2)n1)C(N)=O (stereo not shown) [NH, nosiheptide]
- synergy with DSX (P. aeruginosa PA14 [7]): synergize

Compound: Cc1nc(C)c(C)nc1C [2,3,5,6-tetrametylpyrazine, 2,3,5,6-Tetramethylpyrazine]
- synergy with TS (P. aeruginosa PA14 [1]; [8]): None

Compound: C=C(NC(=O)C(=C)NC(=O)c1ccc2c(n1)-c1coc(n1)C(=C)NC(=O)C(=C)NC(=O)c1nc(oc1C)C(=C)NC(=O)[C@H](C(C)(C)O)NC(=O)C(=C)NC(=O)c1nc(oc1C)/C(=C/C)NC(=O)[C@H]([C@@H](C)O)NC(=O)c1csc-2n1)C(N)=O [BER, berninamycin A]
- synergy with DSX (P. aeruginosa PA14 [7]): did not synergize

Compound: micrococcin P1 [MP]
- synergy with DSX (P. aeruginosa PA14 [7]): synergize

Compound: O=C(O[C@@H]1Cc2c(O)cc(O)cc2O[C@@H]1c1cc(O)c(O)c(O)c1)c1cc(O)c(O)c(O)c1 [epigallocatechin gallate, Epigallocatechin Gallate]
- synergy with TS (P. aeruginosa PA14 [1]; [8]): None

Compound: O=C(O)[C@H]1O[C@@H](Oc2cc3oc(-c4ccccc4)cc(=O)c3c(O)c2O)[C@H](O)[C@@H](O)[C@@H]1O [baicalin, Baicalin]
- synergy with TS (P. aeruginosa PA14 [1]; [8]): None

Compound: CCn1cc(C(=O)O)c(=O)c2cnc(N3CCNCC3)nc21 [Pipemidic acid]
- colour change upon addition of FeCl3 [2]: formed orange complexes
- absorption spectrum after addition of FeCl3 [4]: shifted

Compound: geninthiocin A
- synergy with DSX (P. aeruginosa PA14 [7]): did not synergize

Compound: COc1cc(/C=C/C(=O)O)ccc1O [ferulic acid, Ferulic Acid]
- synergy with TS (P. aeruginosa PA14 [1]; [8]): None

Compound: C[C@H]1c2cccc(O)c2C(=O)C2=C(O)[C@]3(O)C(=O)C(C(N)=O)=C(O)[C@@H](N(C)C)[C@@H]3[C@@H](O)[C@@H]21 [DOXY, Doxycycline]
- one-eighth of MIC against PA14 (test concentration) (P. aeruginosa PA14 [1]; [9]): 1 µg/mL

Compound: O=C(N[C@H](CO)[C@H](O)c1ccc([N+](=O)[O-])cc1)C(Cl)Cl [Chloramphenicol]
- synergy with DSX (P. aeruginosa PA14 [1]; PA14): No synergy

Compound: CO/N=C(\C(=O)N[C@@H]1C(=O)N2C(C(=O)O)=C(CSc3nc(=O)c(=O)[nH]n3C)CS[C@H]12)c1csc(N)n1 [Ceftriaxone, ceftriaxone]
- colour change upon addition of FeCl3 [2]: turned red
- absorption spectrum after addition of FeCl3 [4]: did not change
